Data as given in PubChem BioAssay AID1996.
≈ marks a conversion by molar mass, not a printed value.

conditions: buffer; pH 7.4; 200.0 µM

C=CCC(=O)N1CCCC(CO)(Cc2ccc(F)cc2F)C1 (stereo not given) and C/C(=C/c1ccccc1)C(=O)N1CCN(c2ccccc2F)CC1 are within 1.5-fold of each other in solubility kinetic: 41.8 µg/mL (≈ 135 µM) for the first, 35.6 µg/mL (≈ 110 µM) for the second.

First: O=[N+]([O-])c1ccc(N2CCN(Cc3ccc4c(c3)OCO4)CC2)nc1
Second: O=[N+]([O-])c1ccc(NCc2ccc(Cl)cc2)nc1
The solubility kinetic of the first is 5.8-fold higher: 7 µg/mL (≈ 20.4 µM) for the first, 1.2 µg/mL (≈ 4.55 µM) for the second.

First: Cc1ccc2c(c1)Cc1nc3ccccc3nc1-2
Second: Cc1cc(C(=O)OCC(=O)c2ccccc2)c2ccccc2n1
The solubility kinetic of the first is 1.9-fold lower: 1.9 µg/mL (≈ 8.18 µM) for the first, 3.6 µg/mL (≈ 11.8 µM) for the second.

First: O=C(CSc1ccccc1)Nc1ccc(Cl)c(S(=O)(=O)N2CCOCC2)c1
Second: O=C(CCCOc1ccccc1)Nc1ccc(Cl)c(S(=O)(=O)N2CCOCC2)c1
The solubility kinetic of the first is 1.8-fold lower: 14.6 µg/mL (≈ 34.2 µM) for the first, 25.7 µg/mL (≈ 58.6 µM) for the second.

Going from CCNC(=S)N1CCC(n2cnc3ccccc32)CC1 to CCNC(=S)N1CCC(Cc2ccccc2)CC1, the solubility kinetic falls from greater than 43.3 µg/mL to 35.4 µg/mL (≈ 135 µM).

CC(C)(C)n1cnnc1Sc1ncccc1[N+](=O)[O-] and O=[N+]([O-])c1cccc(NC(=S)N2CCCC2)c1 cannot be ordered by solubility kinetic: greater than 41.9 µg/mL for the first, greater than 37.7 µg/mL for the second.

Compared with COC(=O)C1CN(C(=O)COc2ccc(C)cc2)c2ccccc2O1 (stereo not given), Cc1ccc(N2CC(C(=O)OCC(=O)c3ccc(F)cc3)CC2=O)cc1 (stereo not given) is 2.1-fold lower in solubility kinetic: 49.1 µg/mL (≈ 144 µM) for the first, 23.5 µg/mL (≈ 66.1 µM) for the second.

First: NC(N)=Nc1nc2cc([N+](=O)[O-])ccc2o1
Second: O=C1CC(N2CCC(c3nc4ccccc4o3)CC2)C(=O)N1 (stereo not given)
The solubility kinetic of the first is 6.7-fold lower: 6.4 µg/mL (≈ 28.9 µM) for the first, 43.1 µg/mL (≈ 144 µM) for the second.

First: CCCCCCCc1c(O)nc(SCC(=O)O)[nH]c1=O
Second: Cc1cc(NC(=O)CN2C(=O)NC(CC(C)C)C2=O)no1 (stereo not given)
The solubility kinetic of the first is lower: 43.9 µg/mL (≈ 146 µM) for the first, greater than 44.1 µg/mL for the second.

Going from NC(=O)Cn1c(=O)n(-c2ccccc2)c(=O)c2oc3ccccc3c21 to Cc1cccc(C)c1OC(=O)CN1C(=O)c2ccccc2C1=O, the solubility kinetic falls from 2.6 µg/mL (≈ 7.75 µM) to 0.9 µg/mL (≈ 2.91 µM) (2.9-fold).

Compared with CCn1c2ccccc2c2cc(NC(=O)C(=O)N3CCOCC3)ccc21, COC(=O)c1sccc1-n1cccc1C(=O)C(=O)N1CCOCC1 is 4.6-fold higher in solubility kinetic: 10.1 µg/mL (≈ 28.7 µM) for the first, 46.3 µg/mL (≈ 133 µM) for the second.

First: O=C(NC1CCCCCC1)C(=S)N1CCOCC1
Second: Cc1ccc(S(=O)(=O)CC(=O)N2CCOCC2)cc1
The solubility kinetic of the first is lower: 23.1 µg/mL (≈ 85.4 µM) for the first, greater than 42.5 µg/mL for the second.

First: N#Cc1ncn(-c2ccc(Oc3ccccc3)cc2)c1N
Second: CCOc1ccc(-n2cc(-c3ccccc3)c3c(=S)nc[nH]c32)cc1
The solubility kinetic of the first is 13-fold higher: 4 µg/mL (≈ 14.5 µM) for the first, 0.3 µg/mL (≈ 0.863 µM) for the second.

CC(=O)Nc1cccc(OCCCNS(=O)(=O)c2ccc(C#N)cc2)c1 and O=C(CCCC(=O)c1ccccc1)Nc1ccc(O)cc1 cannot be ordered by solubility kinetic: greater than 56 µg/mL for the first, greater than 42.5 µg/mL for the second.

Going from COc1cccc(Nc2nc3ccc(OC)cc3s2)c1 to COc1cc(C2Nc3cccc4cccc(c34)N2)ccc1O, the solubility kinetic rises from 2.8 µg/mL (≈ 9.78 µM) to 35.5 µg/mL (≈ 121 µM) (13-fold).

Cc1cc(C)cc(N2C(=O)CC(Sc3ccccc3C(=O)O)C2=O)c1 (stereo not given) and CC1CCCN(C(=O)c2cc3ccccc3cc2O)C1 (stereo not given) are within 1.5-fold of each other in solubility kinetic: 52.4 µg/mL (≈ 147 µM) for the first, 38.5 µg/mL (≈ 143 µM) for the second.

Going from CCOC(=O)c1cc(-c2csc(Nc3ccccc3Cl)n2)on1 to Cc1onc(-c2ccccc2)c1CNC(=O)Nc1ccc(F)cc1F, the solubility kinetic rises from 0.6 µg/mL (≈ 1.72 µM) to 4.1 µg/mL (≈ 11.9 µM) (6.8-fold).

O=C1NC(=O)N(Cc2ccccc2)C1=O and CC(C)CC(=O)C1=C(O)C(=O)N(Cc2ccccc2)C1c1ccccc1 (stereo not given) cannot be ordered by solubility kinetic: greater than 30.6 µg/mL for the first, 47.3 µg/mL (≈ 135 µM) for the second.

CCO/N=C/C1=C(O)C(C(=O)OC)C(C)(C)CC1=O (stereo not given) and CCOC(=O)C1CN(S(=O)(=O)c2cc(OC)ccc2OC)C1 cannot be ordered by solubility kinetic: greater than 40.4 µg/mL for the first, 48.8 µg/mL (≈ 148 µM) for the second.

CNC(=O)c1ccccc1Nc1ccc(SC(F)F)cc1 and COC(=O)N1c2ccccc2CCc2ccccc21 are within 1.5-fold of each other in solubility kinetic: 28.6 µg/mL (≈ 92.8 µM) for the first, 36.6 µg/mL (≈ 144 µM) for the second.

Going from COc1ccc(C(=O)CSc2ncnc3nc[nH]c23)cc1 to Cc1ccc(C(=O)NCCNC(=O)COc2ccc(Cl)cc2)cn1, the solubility kinetic rises from 8 µg/mL (≈ 26.6 µM) to greater than 52.2 µg/mL.

CCc1cccc(CC)c1NC(=O)C1CCN(C(=O)c2ccco2)CC1 and NC(=O)C1CCN(CCS(=O)(=O)c2ccc(Cl)cc2)CC1 cannot be ordered by solubility kinetic: 51.2 µg/mL (≈ 144 µM) for the first, greater than 49.6 µg/mL for the second.

COc1cc(C(=O)NNC(=O)C2CCCC2)cc(OC)c1OC and COc1cc(C(=O)OCC(=O)Nc2ccc(S(=O)(=O)NC3=NCCCCC3)cc2)cc(OC)c1OC cannot be ordered by solubility kinetic: greater than 48.4 µg/mL for the first, 73.5 µg/mL (≈ 141 µM) for the second.

First: Cc1[nH]c2ccc(C(=O)NCCN3CCCCCC3)cc2c1C
Second: Nc1ccccc1C(=O)NCCCN1CCN(c2cccc(Cl)c2)CC1
The solubility kinetic of the first is higher: greater than 47 µg/mL for the first, 12.9 µg/mL (≈ 34.6 µM) for the second.

Going from CC1(C)Cc2nc3sc(C(=O)NCCCO)c(N)c3cc2CO1 to COCCCNc1ncnc2c1sc1nc(-c3ccco3)c3c(c12)CC(C)(C)OC3, the solubility kinetic falls from greater than 50.3 µg/mL to 1.3 µg/mL (≈ 3.06 µM).

Compared with CC(C)(C)C(=O)NC1CC2CCCC(C1)N2C(=O)Nc1ccccc1 (stereo not given), Cc1ccc(NC(=O)N2CCN(C(=O)C3CCCO3)CC2)cc1 (stereo not given) is higher in solubility kinetic: 12.8 µg/mL (≈ 37.3 µM) for the first, greater than 47.6 µg/mL for the second.

Going from CNCCCC12CCC(c3ccccc31)c1ccccc12 to Clc1ccc(-c2cn3ccccc3n2)cc1, the solubility kinetic falls from 38.6 µg/mL (≈ 139 µM) to 2.5 µg/mL (≈ 10.9 µM) (15-fold).

First: COC(=O)c1ccc(C(=O)OC)c(NC(=O)C(C)(C)C)c1
Second: Cc1cccc(C(=O)NCCCn2ccnc2)c1C
The solubility kinetic of the first is 9.6-fold lower: 3.9 µg/mL (≈ 13.3 µM) for the first, 37.6 µg/mL (≈ 146 µM) for the second.

O=c1cc(-c2ccco2)nc(SCc2cccc(Cl)c2)[nH]1 and Cc1c(C(=O)NC2CCC(C)CC2)oc2ccccc12 (stereo not given) are within 1.5-fold of each other in solubility kinetic: 0.6 µg/mL (≈ 1.88 µM) for the first, 0.7 µg/mL (≈ 2.58 µM) for the second.

First: CCc1nnc(NC(=O)CN2C(=O)NC3(CC(C)CC(C)(C)C3)C2=O)s1 (stereo not given)
Second: Cc1nc2oc3c(=O)[nH]cnc3c2c2c1COC(C)(C)C2
The solubility kinetic of the first is higher: greater than 56.9 µg/mL for the first, 40 µg/mL (≈ 140 µM) for the second.
